According to patent US12023333B2, “Phenyl-sulfamoyl.benzoyc acids as ERAP1 modulators” (GREY WOLF THERAPEUTICS LIMITED, priority 2019, dated 2024):
pIC50: −log10 of the molar value.

Biological target: T1, Purified ERAP1(37-941)-10His (ERAP1) (Homo sapiens, UniProt Q9NZ08)
T1 construct: Purified ERAP1(37-941)-10His (ERAP1); 10His (C)
Experiment: ERAP1 mediated hydrolysis of an amide substrate measured in a biochemical system (10-mer decapeptide substrate)
Details: 10-mer substrate, 23° C. for 1 h, excitation 279 nm and emission 355 nm; read-out: IC50 vs Decapeptide WRVYEKC(Dnp)ALK-acid (where Dnp is Dinitrophenyl maleimide) (10-mer)
Method in brief: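 ERAP1(37-941)-10His preincubated with compound in 25 mM Bis-tris propane, 0.05% HPMC, pH 7.75, then reacted 1 h at 23 °C with 10-mer WRVYEKC(Dnp)ALK (100 μM solution added in equal volume). Fluorescence read at ex 279/em 355 nm; IC50 from 4-parameter fit.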

T1 sequence (Q9NZ08 37-941): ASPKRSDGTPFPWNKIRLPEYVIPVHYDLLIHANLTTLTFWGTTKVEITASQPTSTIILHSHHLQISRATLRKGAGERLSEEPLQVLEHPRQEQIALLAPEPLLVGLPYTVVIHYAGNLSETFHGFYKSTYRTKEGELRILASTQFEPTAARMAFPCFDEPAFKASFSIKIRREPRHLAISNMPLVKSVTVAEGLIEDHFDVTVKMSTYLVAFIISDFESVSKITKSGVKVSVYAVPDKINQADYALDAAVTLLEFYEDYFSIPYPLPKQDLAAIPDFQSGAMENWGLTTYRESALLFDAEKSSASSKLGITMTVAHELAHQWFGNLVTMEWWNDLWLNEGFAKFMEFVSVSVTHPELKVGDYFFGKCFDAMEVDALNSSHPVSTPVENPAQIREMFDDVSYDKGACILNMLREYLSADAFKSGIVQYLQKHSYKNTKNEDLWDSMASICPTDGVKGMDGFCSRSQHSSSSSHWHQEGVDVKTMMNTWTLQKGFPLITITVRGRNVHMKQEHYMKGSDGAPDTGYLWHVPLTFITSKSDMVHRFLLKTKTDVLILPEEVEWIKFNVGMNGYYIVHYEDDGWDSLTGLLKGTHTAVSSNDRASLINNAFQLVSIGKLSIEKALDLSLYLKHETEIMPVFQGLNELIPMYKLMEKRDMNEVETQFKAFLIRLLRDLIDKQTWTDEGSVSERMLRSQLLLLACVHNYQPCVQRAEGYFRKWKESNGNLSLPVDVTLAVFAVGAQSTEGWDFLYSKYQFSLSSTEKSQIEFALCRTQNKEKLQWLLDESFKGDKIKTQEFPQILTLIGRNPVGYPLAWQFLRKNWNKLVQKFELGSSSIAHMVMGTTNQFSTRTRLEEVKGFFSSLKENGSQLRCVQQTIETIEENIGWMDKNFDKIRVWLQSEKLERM

Row | SMILES | pIC50
1 | CCc1ccc(C(=O)O)cc1S(=O)(=O)Nc1cc(C(F)(F)F)ccc1-c1cccnc1 [Example 27, 4-ethyl-3-(N-(2-(pyridin-3-yl)-5-(trifluoromethyl)phenyl)sulfamoyl)benzoic acid] | > 6.30
2 | CCc1ccc(C(=O)O)cc1S(=O)(=O)Nc1cc(C#N)ccc1-c1ccc(C)s1 [Example 80, 3-(N-(5-cyano-2-(5-methylthiophen-2-yl)phenyl)sulfamoyl)-4-ethylbenzoic acid] | > 6.30
3 | COc1ccc(C(=O)O)cc1S(=O)(=O)Nc1cc(C(F)(F)F)ccc1-n1cccn1 [Example 30, 3-(N-(2-(pyrazol-1-yl)-5-(trifluoromethyl)phenyl)sulfamoyl)-4-methoxybenzoic acid] | > 5.30
4 | CCc1ccc(C(=O)O)cc1S(=O)(=O)Nc1cc(C#N)ccc1-c1ccc(C#N)s1 [Example 118, 3-(N-(5-cyano-2-(5-cyanothiophen-2-yl)phenyl)sulfamoyl)-4-ethylbenzoic acid] | > 6.30
5 | COc1ccc(C(=O)O)cc1S(=O)(=O)Nc1cc(C(F)(F)F)ccc1-c1cccs1 [Example 3, 4-methoxy-3-(N-(2-(thiophen-2-yl)-5-(trifluoromethyl)phenyl)sulfamoyl)benzoic acid] | > 6.30
6 | CCc1ccc(C(=O)O)cc1S(=O)(=O)Nc1cc(C(F)(F)F)c(F)cc1-n1cccc1 [Example 130, 4-ethyl-3-(N-(4-fluoro-2-(pyrrol-1-yl)-5-(trifluoromethyl)phenyl)sulfamoyl)benzoic acid] | > 6.30
7 | COc1ccc(C(=O)O)cc1S(=O)(=O)Nc1cc(C#N)c(F)cc1-c1cccc(F)c1 [Example 112, 3-(N-(4-cyano-3′,5-difluoro-[1,1′-biphenyl]-2-yl)sulfamoyl)-4-methoxybenzoic acid] | > 6.30
8 | COc1ccc(C(=O)O)cc1S(=O)(=O)Nc1cc(C(F)(F)F)ccc1-c1cccc(Cl)c1 [Example 46, 3-(N-(3′-chloro-4-(trifluoromethyl)-[1,1′-biphenyl]-2-yl)sulfamoyl)-4-methoxybenzoic acid] | > 6.30
9 | CCc1ccc(C(=O)O)cc1S(=O)(=O)Nc1cc(C(F)(F)F)ccc1-c1ccc(C#N)s1 [Example 77, 3-(N-(2-(5-cyanothiophen-2-yl)-5-(trifluoromethyl)phenyl)sulfamoyl)-4-ethylbenzoic acid] | > 6.30
10 | CCc1ccc(C(=O)O)cc1S(=O)(=O)Nc1cc(S(C)(=O)=O)ccc1-c1ccc(C)s1 [Example 84, 4-ethyl-3-(N-(5-(methylsulfonyl)-2-(5-methylthiophen-2-yl)phenyl)sulfamoyl) benzoic acid] | > 6.30
11 | CS(=O)(=O)c1ccc(-c2ccc(Cl)s2)c(NS(=O)(=O)c2cc(C(=O)O)ccc2C2CC2)c1 [Example 123, 3-(N-(2-(5-chlorothiophen-2-yl)-5-(methylsulfonyl)phenyl)sulfamoyl)-4-cyclopropylbenzoic acid] | > 6.30
12 | O=C(O)c1ccc(C2CC2)c(S(=O)(=O)Nc2cc(-c3ccns3)ccc2-c2ccccc2)c1 [Example 135, 4-cyclopropyl-3-(N-(4-(isothiazol-5-yl)-[1,1′-biphenyl]-2-yl)sulfamoyl)benzoic acid] | > 6.30
13 | COc1ccc(C(=O)O)cc1S(=O)(=O)Nc1cc(C(F)(F)F)ccc1-c1ccoc1 [Example 18, 3-(N-(2-(furan-3-yl)-5-(trifluoromethyl)phenyl)sulfamoyl)-4-methoxybenzoic acid] | > 6.30
14 | CCc1ccc(C(=O)O)cc1S(=O)(=O)Nc1cc(C#N)ccc1-c1cccnc1 [Example 57, 3-(N-(5-cyano-2-(pyridin-3-yl)phenyl)sulfamoyl)-4-ethylbenzoic acid] | > 6.30
15 | COc1ccc(C(=O)O)cc1S(=O)(=O)Nc1cc(C#N)ccc1-c1ccccn1 [Example 45, 3-(N-(5-cyano-2-(pyridin-2-yl)phenyl)sulfamoyl)-4-methoxybenzoic acid] | > 6.30
16 | N#Cc1ccc(-c2ccccc2)c(NS(=O)(=O)c2cc(C(=O)O)ccc2C2CC2)c1 [Example 96, 3-(N-(4-cyano-[1,1′-biphenyl]-2-yl)sulfamoyl)-4-cyclopropylbenzoic acid] | > 6.30
17 | CCc1ccc(C(=O)O)cc1S(=O)(=O)Nc1cc(-n2cnnn2)ccc1-c1cccc(C#N)c1 [Example 56, 3-(N-(3′-cyano-4-tetrazol-1-yl-[1,1′-biphenyl]-2-yl)sulfamoyl)-4-ethylbenzoic acid] | > 6.30
18 | COc1ccc(C(=O)O)cc1S(=O)(=O)Nc1cc(C(F)(F)F)ccc1-c1cccc(F)c1 [Example 15, 3-(N-(3′-fluoro-4-(trifluoromethyl)-[1,1′-biphenyl]-2-yl)sulfamoyl)-4-methoxybenzoic acid] | > 6.30
19 | CCc1ccc(C(=O)O)cc1S(=O)(=O)Nc1cc(C#N)ccc1-c1ccc(Cl)s1 [Example 91, 3-(N-(2-(5-chlorothiophen-2-yl)-5-cyanophenyl)sulfamoyl)-4-ethylbenzoic acid] | > 6.30
20 | CCc1ccc(C(=O)O)cc1S(=O)(=O)Nc1cc(S(C)(=O)=O)ccc1-c1ccccc1 [Example 32, 4-ethyl-3-(N-(4-(methylsulfonyl)-[1,1′-biphenyl]-2-yl)sulfamoyl)benzoic acid] | > 6.30
21 | COc1ccccc1-c1ccc(C(F)(F)F)cc1NS(=O)(=O)c1cc(C(=O)O)ccc1OC [Example 11, 4-methoxy-3-(N-(2′-methoxy-4-(trifluoromethyl)-[1,1′-biphenyl]-2-yl)sulfamoyl)benzoic acid] | > 5.30
22 | COc1ccc(C(=O)O)cc1S(=O)(=O)Nc1cc(C(F)(F)F)ccc1-c1cccc(C#N)c1 [Example 7, 3-(N-(3′-cyano-4-(trifluoromethyl)-[1,1′-biphenyl]-2-yl)sulfamoyl)-4-methoxybenzoic acid] | > 6.30
23 | COc1ccc(C(=O)O)cc1S(=O)(=O)Nc1cc(C(F)(F)F)ccc1-c1ccccc1F [Example 9, 3-(N-(2′-fluoro-4-(trifluoromethyl)-[1,1′-biphenyl]-2-yl)sulfamoyl)-4-methoxybenzoic acid] | > 6.30
24 | COc1ccc(C(=O)O)cc1S(=O)(=O)Nc1cc(S(C)(=O)=O)ccc1-c1ccc(Cl)s1 [Example 88, 3-(N-(2-(5-chlorothiophen-2-yl)-5-(methylsulfonyl)phenyl)sulfamoyl)-4-methoxybenzoic acid] | > 6.30

Second part, the molecule after the results:

Row | pIC50 | SMILES
25 | > 6.30 | N#Cc1ccc(-c2cscn2)c(NS(=O)(=O)c2cc(C(=O)O)ccc2C2CC2)c1 [Example 159, 3-(N-(5-cyano-2-(thiazol-4-yl)phenyl)sulfamoyl)-4-cyclopropylbenzoic acid]
26 | > 6.30 | O=C(O)c1ccc(C2CC2)c(S(=O)(=O)Nc2cc(-n3cnnn3)c(F)cc2-n2cccc2)c1 [Example 207, 4-cyclopropyl-3-(N-(4-fluoro-2-(pyrrol-1-yl)-5-(tetrazol-1-yl)phenyl)sulfamoyl)benzoic acid]
27 | > 6.30 | Cn1ncnc1-c1cc(NS(=O)(=O)c2cc(C(=O)O)ccc2C2CC2)c(-c2ccccn2)cc1Cl [Example 189, 3-(N-(4-chloro-5-(1-methyl-1,2,4-triazol-5-yl)-2-(pyridin-2-yl)phenyl)sulfamoyl)-4-cyclopropylbenzoic acid]
28 | > 6.30 | O=C(O)c1ccc(C2CC2)c(S(=O)(=O)Nc2cc(-c3ccns3)ccc2-c2ccccn2)c1 [Example 139, 4-cyclopropyl-3-(N-(5-(isothiazol-5-yl)-2-(pyridin-2-yl)phenyl)sulfamoyl)benzoic acid]
29 | > 6.30 | Cc1ccc(-c2ccc(-c3cnsc3C)cc2NS(=O)(=O)c2cc(C(=O)O)ccc2C2CC2)s1 [Example 140, 4-cyclopropyl-3-(N-(5-(5-methylisothiazol-4-yl)-2-(5-methylthiophen-2-yl)phenyl)sulfamoyl)benzoic acid]
30 | > 6.30 | O=C(O)c1ccc(C2CC2)c(S(=O)(=O)Nc2cc(C(F)(F)F)c(Cl)cc2-n2cccc2)c1 [Example 156, 3-(N-(4-chloro-2-(pyrrol-1-yl)-5-(trifluoromethyl)phenyl)sulfamoyl)-4-cyclopropylbenzoic acid]
31 | > 6.30 | Cc1sncc1-c1ccc(-c2ccc(F)s2)c(NS(=O)(=O)c2cc(C(=O)O)ccc2C2CC2)c1 [Example 142, 4-cyclopropyl-3-(N-(2-(5-fluorothiophen-2-yl)-5-(5-methylisothiazol-4-yl)phenyl)sulfamoyl)benzoic acid]
32 | > 6.30 | N#Cc1cc(NS(=O)(=O)c2cc(C(=O)O)ccc2C2CC2)c(-c2ccc(Cl)s2)cc1F [Example 166, 3-(N-(2-(5-chlorothiophen-2-yl)-5-cyano-4-fluorophenyl)sulfamoyl)-4-cyclopropylbenzoic acid]
33 | > 6.30 | Cc1sncc1-c1ccc(-c2ccccn2)c(NS(=O)(=O)c2cc(C(=O)O)ccc2C2CC2)c1 [Example 144, 4-cyclopropyl-3-(N-(5-(5-methylisothiazol-4-yl)-2-(pyridin-2-yl)phenyl)sulfamoyl)benzoic acid]
34 | > 6.30 | Cc1sncc1-c1ccc(-n2cccc2)c(NS(=O)(=O)c2cc(C(=O)O)ccc2C2CC2)c1 [Example 150, 4-cyclopropyl-3-(N-(5-(5-methylisothiazol-4-yl)-2-(pyrrol-1-yl)phenyl)sulfamoyl)benzoic acid]
35 | > 6.30 | Cc1cc(C#N)cc(NS(=O)(=O)c2cc(C(=O)O)ccc2C2CC2)c1-c1ccc(Cl)s1 [Example 177, 3-(N-(2-(5-chlorothiophen-2-yl)-5-cyano-3-methylphenyl)sulfamoyl)-4-cyclopropylbenzoic acid]
36 | > 6.30 | Cn1ncnc1-c1cc(NS(=O)(=O)c2cc(C(=O)O)ccc2C2CC2)c(-c2ccccn2)cc1F [Example 186, 4-cyclopropyl-3-(N-(4-fluoro-5-(1-methyl-1,2,4-triazol-5-yl)-2-(pyridin-2-yl)phenyl)sulfamoyl)benzoic acid]
37 | > 6.30 | O=C(O)c1ccc(C2CC2)c(S(=O)(=O)Nc2cc(-c3ccns3)ccc2-n2cccc2)c1 [Example 143, 4-cyclopropyl-3-(N-(5-(isothiazol-5-yl)-2-(pyrrol-1-yl)phenyl)sulfamoyl)benzoic acid]
